This note sets out measurements from paper PMC9739815, “Akt/mTOR Targeting Activity of Resveratrol Derivatives in Non-Small Lung Cancer” (Molecules, 2022).

Assay [1] relates to p-mTOR/mTOR in H23 cells. In words: Western blot of p-mTOR/mTOR, H23 cells. It is filed as cell-based, human. Conditions: 12 h. The method, then:
(§1) NSCLC cells (A549 and H23) were treated with RD2 and RD3 (10–100 μM) for 12 h. After which, all cells were collected and the expression levels of Akt, p-Akt, mTOR, and p-mTOR were investigated by Western blot analysis (Figure 5a, Figure 6a, Figure 7a and Figure 8a). […] Immunofluorescence staining of Akt, p-Akt, mTOR, and p-mTOR was performed in RD2 and RD3 treated cells. The results further confirm the effect of RD2 and RD3 on the Akt/mTOR pathway.
Western blotting was used to detect the presence of specific protein. Cells were seed at a density of 4 × 10^5 cells/well in 6 well plates overnight. Cells were treated with various concentrations RD1-RD5 were treated for 12 h. After treatment, the apoptosis cells were collected by centrifuging media with 1500 rpm for 5 min and aspirating supernatants. Then, cells were washed with cold 1× PBS and incubated with 1X RIPPA 40 µL containing 10× RIPA buffer 100 µL, protease inhibitors (PI) 100 µL, PMSF 10 µL, and Triton × 10 µL for 30 min on ice. BCA protein assay kit from Pierce Biotechnology (Rockford, IL, USA) analyzed protein concentrations. The extracted proteins were separated by 7.5–10% sodium dodecyl sulfate polyacrylamide gel electrophoresis (SDS-PAGE) and transferred to polyvinylidene difluoride membrane (PVDF). Then, the membranes were blocked with 5% non-fat milk powder for 2 h. After that, they were incubated with primary antibody at 4 °C Akt (#9272), phosphorylated Akt (#4060), mTOR (#2983S), and p-mTOR (#5536S) overnight. The membranes were washed with Tris-buffered saline/Tween 20 3 times and incubated with secondary antibodies for 2 h. Finally, the protein bands were detected using chemiluminescence substrate and exposed by Chemiluminescent ImageQuant LAS4000. Protein bands were analyzed using Image J software.
(Immunoblotting shows a protein as a band on a membrane.)

Assay [2] deals with H23 cells. In words: Colony formation assay, H23 cells. It is filed as cell-based, human. Conditions: for reduction of number of forming colonies: 24 h treatment, 7 days; for reduction of number of forming colonies / decrease of colony size: vs control. How it is done:
Colony formation assay was used to confirm the anti-cancer action of resveratrol derivatives, as it is a cell proliferation assay which can detect the ability of a single cell to grow into a colony. NSCLC cells were seeded and treated with RD2 and RD3 (1–200 μM) for 24 h. The treated cells were subjected to colony formation assay for 7 days. The crystal violet-staining colony represented the colony suppression effect of RD2 and RD3 compared to the untreated control (Figure 3a,b). The RD2 compound dramatically abolished the forming colony. Colony number was absent in response to RD2 at the concentrations of 100 and 200 μM, whereas there was no significant response to RD3 (Figure 3a,b).
Cells were seeded at a density of 300 cells/well into 6-well plate and then further treated with various concentrations resveratrol derivatives for 24 h after that the medium was replaced and the cell were incubated for colony number and colony size were investigated after fixing with methanol and acetic acid (3:1) solution and staining with 0.05% w/v crystal violet in 4% formaldehyde.

Assay [3] has as its system H23 cells. Kind of assay: Hoechst 33342/PI nuclear staining apoptosis assay, H23 cells. It is filed as cell-based, human. Conditions: 24 h. The method, then:
Apoptosis is considered as an important mechanism of action of anti-cancer drugs. The important characteristics of apoptotic cells include the nuclear morphological changes, chromatin condensation, and DNA fragmentation. Hoechst 33342 and propidium iodide (PI) double staining was utilized to determine the mode of cell death by monitoring the nucleus morphology of apoptotic cells as well as their membrane integrity. Cells were seeded in a 96-well plate at the density of 1 × 10^4 cells/well and treated with various concentrations of RD2 and RD3 (10–200 μM) for 24 h. The cells were co-stained with Hoechst 33342 and PI. […] The red fluorescence of PI indicated a late apoptosis cell and necrotic cells.
This method was applied to define apoptotic and necrotic cell death by using nuclear staining with Hoechst 33342. The cells were seeded on 96-well plates at the density 1 × 10^4 cells per well in 96-well plates and incubated overnight. The cells were treated with various concentrations of RD1-RD5 and incubated for 24 h at 37 °C. Afterward, the cells were incubated with Hoechst 33342 (10 μg/mL) / PI (5 μg/mL) solution for 30 min at 37 °C. Then, they were visualized and imaged under a fluorescence microscope (Olympus DP70, Melville, NY, USA). Results are reported as a percentage of apoptotic cells.

Assay [4] has as its system H23 cells. In words: MTT cell viability assay, H23 cells. The format is cell-based. Conditions: Homo sapiens, NCI-H23, 24 h, 0–200 µM, read-out: IC50 ± SEM of NSCLC cells, H23. How it is done: NSCLC cells were cultured overnight and treated with various concentrations (0–200 µM) of resveratrol derivatives (RD1-RD5) and resveratrol for 24 h, and then cell viability was analyzed by the 3-(4, 5-dimethylthiazolyl-2)-2, 5-diphenyltetrazolium bromide (MTT) assay to evaluate the percentage of cell viability. All of the data were calculated on the basis of the results of three replicated samples. […] The difference of the structure at C-4 was that the hydroxyl group of RD2 was modified to the methoxy group of RD3 and at C-3, the methoxy group of RD2 was changed to the hydroxyl group of RD3. […] Furthermore, resveratrol decreased cell viability in NSCLC cells (A549, H23, and H460) with the IC50 at more than 200 µM which was the same RD3 (Figure 2a–d). This different action on cancer cells as a result of chemical structure modification has provided an insight for the structure–activity relationship that may facilitate the further development of the potent compound from the lead structure of resveratrol derivatives. Cell viability was investigated by MTT colorimetric assay. All cell lines were cultured at the density of 1 × 10^4 cells per well in a 96-well tissue culture plate and incubated in an incubator. After that, cells were treated with various concentrations of RD1-RD5 for 24 h at 37 °C and analyzed by the MTT assay according to the manufacturer’s protocol (Sigma Chemical, St. Louis, MO, USA). In calculating the cell viability by a microplate reader (Anthros, Durham, NC, USA), the measured absorbance of treated cells were divided by the value of untreated cells and are reported as a percentage.
A general note: Tetrazolium assays rely on reduction of a dye to a coloured formazan, in cell work by metabolically active cells.

The subject of assay [5] is p-mTOR in A549 cells. In words: Immunofluorescence staining of p-mTOR, A549 cells. Conditions: 12 h, RD2 effect at 50–100 μM. It is filed as cell-based, human. The method, then: as §1
Cells were seeded at a density of 1 × 10^4 cells/well in 6-well plates overnight. Cells were treated with various concentrations resveratrol derivatives ([…]) and were treated for 12 h. Then, they were fixed with 4% paraformaldehyde in PBS for 15 min, permeabilized for 5 min with 0.5% Triton-X, and blocked with 0.1% Triton-X in 10% FBD in PBS for 1 h at room temperature. Cells were added to the primary antibody Akt (#9272), phosphorylated Akt (#4060), mTOR (#2983S), and p-mTOR (#5536S). Then, they were incubated at 4 °C overnight. After that, they were incubated with secondary antibody for 1 h and stained with Hoechst 33342 for 30 min at room temperature in a dark place. The images were visualized under a fluorescent microscope (Olympus DP70, Melville, NY, USA) and analyzed by The ImageJ software.

As a reminder, the IC50 is the concentration that inhibits the measured activity by half.

Regarding `COc1cc(CCc2ccc(O)c(OC)c2)ccc1O` [RD2, 4,4′-(ethane-1,2-diyl)bis(2-methoxyphenol)], the “p-mTOR/mTOR protein expression levels” value in assay [1] (100 μM, vs untreated control) is recorded as “significant decrease”. Moreover, the entries for the “reduction of number of forming colonies” value in assay [2] (10 μM), in assay [2] (100 μM) and in assay [2] (200 μM) were 25.43%, 94.16% and 98.23%, respectively. In addition, the “decrease of colony size” value in assay [2] (100 μM) stood at 64.42%; in assay [2] (200 μM), 65.98%. Further, the apoptotic ratio in assay [3] (100 μM) came to 36.63%; in assay [3] (200 μM) it was 75.79%. The IC50 in assay [4] is 104 ± 6.08 µM. In addition, in assay [5], the p-mTOR signal intensity result is given as “dramatic decrease”.
Consider `COc1ccc(CCc2ccc(O)c(OC)c2)cc1O` [RD3, 4-(3-hydroxy-4-methoxyphenethyl)-2-methoxyphenol], for which the “p-mTOR/mTOR protein expression levels” value in assay [1] (10–100 μM) is reported as “no effect”. The “reduction of number of forming colonies” value is listed as 24.83% in assay [2] (10 μM), 27.70% in assay [2] (100 μM) and 59.74% in assay [2] (200 μM). Moreover, the “effect on colony size” value in assay [2] (10–200 μM) is listed as “no significant effect”. For the same compound, the apoptotic ratio in assay [3] (200 μM) is 18.57%. Further, the 50% inhibitory concentration (IC50) in assay [4] was greater than 200 µM. The p-mTOR signal intensity result in assay [5] is “only minimally affected”.
